# Test results as given in patent publication US9938264B2, “Proteolysis targeting chimera compounds and methods of preparing and using same” (YALE UNIVERSITY, priority 2015, dated 2018).
# Tests used:
# [1] = target: T1, non-phosphorylated c-ABL kinase domain (Homo sapiens, UniProt P00519); assay: KinomeScan in vitro binding affinity (Kd), non-phosphorylated c-ABL kinase domain; details: Table 2, read-out: ABL (non-phosphorylated)
# T1 construct: phosphorylated and non-phosphorylated c-ABL kinase domain; purchased DiscoverRx Corporation (KinomeScan platform)
# T1 sequence (P00519 242-493 limits assumed): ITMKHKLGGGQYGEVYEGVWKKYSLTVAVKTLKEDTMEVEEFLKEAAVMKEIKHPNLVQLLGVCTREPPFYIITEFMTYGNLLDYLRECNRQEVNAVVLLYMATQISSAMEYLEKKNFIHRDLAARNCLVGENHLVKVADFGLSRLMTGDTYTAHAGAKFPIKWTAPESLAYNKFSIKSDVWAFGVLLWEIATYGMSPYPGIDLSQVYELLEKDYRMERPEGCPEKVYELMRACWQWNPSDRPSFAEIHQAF
# Experimental: (§1) PROTAC in vitro binding affinities (Kd) to phosphorylated and non-phosphorylated c-ABL kinase domain were determined using the KinomeScan platform (DiscoverRx Corporation). The compounds were solubilized in DMSO and sent to DiscoverRx Corporation as a 10 μM stock solution.
# c-ABL = target: T2, c-ABL (Homo sapiens, UniProt P00519); assay: c-ABL degradation in K562 cells by immunoblot; format: cell-based; details: for concentration from which degradation of c-ABL is observed: 24 hrs, immunoblot; for decrease (degradation) of c-ABL: at 1 μM PROTAC
# T2 construct: endogenous in cells; host or cells: K562 (ATCC)
# T2 sequence (P00519 whole entry): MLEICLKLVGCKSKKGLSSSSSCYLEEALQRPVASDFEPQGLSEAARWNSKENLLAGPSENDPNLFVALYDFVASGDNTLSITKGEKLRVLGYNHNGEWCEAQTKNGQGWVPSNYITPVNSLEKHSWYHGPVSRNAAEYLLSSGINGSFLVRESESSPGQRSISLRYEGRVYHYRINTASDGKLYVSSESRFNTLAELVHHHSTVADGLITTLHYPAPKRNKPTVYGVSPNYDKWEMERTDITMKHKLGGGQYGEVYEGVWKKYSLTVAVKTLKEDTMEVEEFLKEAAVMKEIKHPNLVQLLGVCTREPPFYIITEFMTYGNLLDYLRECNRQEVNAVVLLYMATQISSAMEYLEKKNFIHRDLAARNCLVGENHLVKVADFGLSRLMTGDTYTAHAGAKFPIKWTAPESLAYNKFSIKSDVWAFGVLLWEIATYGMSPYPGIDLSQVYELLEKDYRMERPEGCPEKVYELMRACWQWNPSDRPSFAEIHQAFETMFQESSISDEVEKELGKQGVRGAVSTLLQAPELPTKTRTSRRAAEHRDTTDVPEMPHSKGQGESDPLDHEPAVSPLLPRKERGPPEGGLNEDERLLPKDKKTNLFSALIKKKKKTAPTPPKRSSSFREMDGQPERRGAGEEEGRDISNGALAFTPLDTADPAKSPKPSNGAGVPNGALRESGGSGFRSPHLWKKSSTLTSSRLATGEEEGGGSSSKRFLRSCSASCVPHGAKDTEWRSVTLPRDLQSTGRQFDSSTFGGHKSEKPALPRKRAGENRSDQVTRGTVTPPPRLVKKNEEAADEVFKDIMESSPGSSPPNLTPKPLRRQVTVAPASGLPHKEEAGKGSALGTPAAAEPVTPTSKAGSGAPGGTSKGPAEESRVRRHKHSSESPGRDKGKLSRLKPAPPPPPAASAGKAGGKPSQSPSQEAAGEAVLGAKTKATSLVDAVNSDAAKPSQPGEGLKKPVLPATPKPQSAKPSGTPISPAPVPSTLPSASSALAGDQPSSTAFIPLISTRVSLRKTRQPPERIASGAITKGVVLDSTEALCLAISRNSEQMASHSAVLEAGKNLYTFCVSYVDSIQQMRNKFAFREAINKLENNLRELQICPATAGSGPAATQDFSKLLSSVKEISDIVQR
# Experimental: (§2) K562 cells were obtained from ATCC and were grown at 37° C., 5% CO2 in Iscove's Modified Dulbecco's Media (IMDM) supplemented with 10% FBS, 100 U/mL penicillin and 100 μg/mL streptomycin. HEK293 and SK-BR-3 cells were obtained from ATCC and were grown at 37° C., 5% CO2 in Dulbecco's Modified Eagle's Media (DMEM) supplemented with 10% FBS, 100 U/mL penicillin and 100 μg/mL streptomycin.
# (§3) K562 cells (1-1.5×10^6) were treated for 24 hours with the indicated compounds solubilized in DMSO. The cells were collected at 300 g for 3 min. […] The total protein concentrations were determined by Pierce BCA Protein Assay and […] of protein was loaded onto 10% Tris-Glycine gels. After standard gel electrophoresis, the separated proteins were transferred to nitrocellulose by wet transfer. The immunoblots were then processed by standard procedures and incubated with the respective antibodies. Band intensities were quantified by Bio-Rad's Image Lab software.
# [2] = target: T3, phosphorylated c-ABL kinase domain (Homo sapiens, UniProt P00519); assay: KinomeScan in vitro binding affinity (Kd), phosphorylated c-ABL kinase domain; details: Table 2, read-out: ABL (phosphorylated)
# T3 construct: phosphorylated and non-phosphorylated c-ABL kinase domain; purchased DiscoverRx Corporation (KinomeScan platform)
# T3 sequence (P00519 242-493 limits assumed): T1 sequence (P00519 242-493 limits assumed)
# Experimental: as §1
# BCR-ABL = target: T4, BCR-ABL (Homo sapiens, UniProt P00519+P11274); assay: BCR-ABL degradation in K562 cells by immunoblot; format: cell-based
# T4 construct: endogenous in cells; host or cells: K562 (ATCC)
# T4 sequence (P11274+P00519 fused, change not shown): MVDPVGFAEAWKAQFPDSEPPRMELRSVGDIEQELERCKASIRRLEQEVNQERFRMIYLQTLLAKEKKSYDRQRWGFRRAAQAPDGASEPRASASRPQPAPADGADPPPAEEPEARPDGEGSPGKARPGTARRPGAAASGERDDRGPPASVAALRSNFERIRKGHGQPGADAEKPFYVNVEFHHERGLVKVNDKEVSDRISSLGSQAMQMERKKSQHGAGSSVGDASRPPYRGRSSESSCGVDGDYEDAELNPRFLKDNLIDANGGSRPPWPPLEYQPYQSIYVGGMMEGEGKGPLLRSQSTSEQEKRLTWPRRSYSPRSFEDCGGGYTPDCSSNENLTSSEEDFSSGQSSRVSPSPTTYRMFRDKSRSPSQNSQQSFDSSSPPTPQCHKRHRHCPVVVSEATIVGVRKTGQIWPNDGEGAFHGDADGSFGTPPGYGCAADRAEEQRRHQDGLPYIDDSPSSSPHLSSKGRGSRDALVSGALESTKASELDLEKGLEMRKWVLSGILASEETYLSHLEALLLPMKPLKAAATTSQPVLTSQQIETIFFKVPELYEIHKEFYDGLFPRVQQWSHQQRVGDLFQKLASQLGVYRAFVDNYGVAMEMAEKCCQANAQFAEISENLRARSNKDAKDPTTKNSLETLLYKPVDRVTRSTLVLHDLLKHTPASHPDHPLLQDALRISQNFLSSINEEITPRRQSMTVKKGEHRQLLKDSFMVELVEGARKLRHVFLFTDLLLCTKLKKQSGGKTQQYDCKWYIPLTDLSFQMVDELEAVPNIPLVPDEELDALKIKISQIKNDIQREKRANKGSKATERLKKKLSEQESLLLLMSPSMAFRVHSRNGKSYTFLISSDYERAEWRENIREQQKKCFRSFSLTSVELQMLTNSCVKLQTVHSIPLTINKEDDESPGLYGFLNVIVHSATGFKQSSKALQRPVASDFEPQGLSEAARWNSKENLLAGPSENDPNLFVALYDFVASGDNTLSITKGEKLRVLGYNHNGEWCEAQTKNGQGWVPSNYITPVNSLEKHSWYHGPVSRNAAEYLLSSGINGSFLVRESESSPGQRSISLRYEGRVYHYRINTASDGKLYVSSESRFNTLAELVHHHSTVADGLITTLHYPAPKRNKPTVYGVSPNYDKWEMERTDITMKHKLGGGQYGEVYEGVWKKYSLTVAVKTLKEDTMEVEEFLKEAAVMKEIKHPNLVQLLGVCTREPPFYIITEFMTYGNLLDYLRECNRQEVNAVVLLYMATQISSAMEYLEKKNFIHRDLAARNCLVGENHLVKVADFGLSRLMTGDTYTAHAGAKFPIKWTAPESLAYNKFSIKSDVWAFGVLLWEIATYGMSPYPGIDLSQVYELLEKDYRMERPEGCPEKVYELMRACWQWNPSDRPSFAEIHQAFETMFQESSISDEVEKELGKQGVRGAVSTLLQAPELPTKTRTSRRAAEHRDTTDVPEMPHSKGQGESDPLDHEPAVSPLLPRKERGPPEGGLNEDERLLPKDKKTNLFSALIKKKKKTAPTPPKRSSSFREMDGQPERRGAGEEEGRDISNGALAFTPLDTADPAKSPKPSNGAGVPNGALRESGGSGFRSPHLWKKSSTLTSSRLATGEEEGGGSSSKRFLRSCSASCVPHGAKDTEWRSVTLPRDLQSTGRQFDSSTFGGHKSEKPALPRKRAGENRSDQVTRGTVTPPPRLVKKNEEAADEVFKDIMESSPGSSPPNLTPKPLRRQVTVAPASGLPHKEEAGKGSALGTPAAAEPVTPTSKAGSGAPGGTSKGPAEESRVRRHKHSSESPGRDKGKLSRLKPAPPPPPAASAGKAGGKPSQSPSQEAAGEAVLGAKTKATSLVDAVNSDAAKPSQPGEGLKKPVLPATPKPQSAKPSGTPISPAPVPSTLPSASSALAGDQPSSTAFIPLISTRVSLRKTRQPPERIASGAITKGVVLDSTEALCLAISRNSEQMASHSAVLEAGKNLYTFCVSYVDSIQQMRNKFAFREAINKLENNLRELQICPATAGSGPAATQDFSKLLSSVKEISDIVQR
# T4 sequence (Q96SW2 whole entry, change not shown, further chain): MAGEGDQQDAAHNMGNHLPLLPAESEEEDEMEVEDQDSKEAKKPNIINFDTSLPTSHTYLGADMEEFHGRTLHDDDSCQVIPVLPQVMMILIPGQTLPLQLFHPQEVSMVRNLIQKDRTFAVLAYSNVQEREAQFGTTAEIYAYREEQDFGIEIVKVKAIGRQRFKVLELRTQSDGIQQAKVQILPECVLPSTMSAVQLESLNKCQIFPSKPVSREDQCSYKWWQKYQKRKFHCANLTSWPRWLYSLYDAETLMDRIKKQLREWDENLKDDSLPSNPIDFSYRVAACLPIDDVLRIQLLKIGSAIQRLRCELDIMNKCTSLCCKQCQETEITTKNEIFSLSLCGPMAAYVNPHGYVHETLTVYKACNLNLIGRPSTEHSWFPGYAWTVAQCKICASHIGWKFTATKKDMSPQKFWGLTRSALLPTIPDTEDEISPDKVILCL
# T4 sequence (Q16531 whole entry partner): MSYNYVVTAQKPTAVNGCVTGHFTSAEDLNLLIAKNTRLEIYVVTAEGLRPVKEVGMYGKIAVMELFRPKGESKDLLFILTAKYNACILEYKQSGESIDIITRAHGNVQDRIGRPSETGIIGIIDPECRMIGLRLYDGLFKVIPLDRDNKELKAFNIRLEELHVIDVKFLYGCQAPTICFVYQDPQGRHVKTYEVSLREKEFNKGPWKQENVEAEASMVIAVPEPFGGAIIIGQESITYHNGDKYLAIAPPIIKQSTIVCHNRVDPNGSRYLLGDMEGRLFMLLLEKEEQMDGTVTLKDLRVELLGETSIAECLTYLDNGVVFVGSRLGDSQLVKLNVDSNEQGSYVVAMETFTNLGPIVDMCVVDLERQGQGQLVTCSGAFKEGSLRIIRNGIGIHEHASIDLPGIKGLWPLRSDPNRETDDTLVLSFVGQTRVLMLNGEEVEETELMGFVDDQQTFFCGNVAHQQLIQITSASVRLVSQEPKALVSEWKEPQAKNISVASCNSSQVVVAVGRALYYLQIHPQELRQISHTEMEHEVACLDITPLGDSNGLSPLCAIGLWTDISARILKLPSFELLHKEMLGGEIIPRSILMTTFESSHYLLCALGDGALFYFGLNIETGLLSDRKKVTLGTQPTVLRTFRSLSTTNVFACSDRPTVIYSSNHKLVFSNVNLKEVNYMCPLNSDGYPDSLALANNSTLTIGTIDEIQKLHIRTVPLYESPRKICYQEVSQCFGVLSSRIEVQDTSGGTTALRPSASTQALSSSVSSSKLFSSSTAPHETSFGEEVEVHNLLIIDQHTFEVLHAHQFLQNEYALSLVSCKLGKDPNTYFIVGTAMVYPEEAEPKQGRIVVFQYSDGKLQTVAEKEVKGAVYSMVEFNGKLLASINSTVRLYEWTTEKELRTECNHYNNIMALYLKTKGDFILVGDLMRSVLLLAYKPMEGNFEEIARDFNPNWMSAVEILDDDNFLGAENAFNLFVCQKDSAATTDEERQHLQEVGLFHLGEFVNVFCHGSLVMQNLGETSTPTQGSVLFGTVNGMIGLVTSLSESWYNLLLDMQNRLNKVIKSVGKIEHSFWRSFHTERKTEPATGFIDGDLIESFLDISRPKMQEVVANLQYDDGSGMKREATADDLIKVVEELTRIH
# Experimental: as §2, §3
Molecule,Kd [1] [nM],concentration from which degradation of c-ABL is observed (c-ABL) [µM],decrease (degradation) of c-ABL (c-ABL) [%],Kd [2] [nM],also measured
"Cc1nc(Nc2ncc(C(=O)Nc3c(C)cccc3Cl)s2)cc(N2CCN(CCCCCCOCCOCCOCCCCCC(=O)N[C@H](C(=O)N3C[C@H](O)C[C@H]3C(=O)NCc3ccc(-c4scnc4C)cc3)C(C)(C)C)CC2)n1 [DAS-6-2-2-6-VHL, N-(2-chloro-6-methylphenyl)-2-((6-(4-((S)-3-((2S,4R)-4-hydroxy-2-((4-(4-methylthiazol-5-yl)benzyl)carbamoyl)pyrrolidine-1-carbonyl)-2,2-dimethyl-5-oxo-11,14,17-trioxa-4-azatricosan-23-yl)piperazin-1-yl)-2-methylpyrimidin-4-yl)amino)thiazole-5-carboxamide]",0.92,≥ 1,> 65,0.47,–
"Cc1nc(Nc2ncc(C(=O)Nc3c(C)cccc3Cl)s2)cc(N2CCN(CCCCCCOCCOCC(=O)N[C@H](C(=O)N3C[C@H](O)C[C@H]3C(=O)NCc3ccc(-c4scnc4C)cc3)C(C)(C)C)CC2)n1 [DAS-6-2-2-VHL, N-(2-chloro-6-methylphenyl)-2-((6-(4-(6-(2-(2-(((S)-1-((2S,4R)-4-hydroxy-2-((4-(4-methylthiazol-5-yl)benzyl)carbamoyl)pyrrolidin-1-yl)-3,3-dimethyl-1-oxobutan-2-yl)amino)-2-oxoethoxy)ethoxy)hexyl)piperazin-1-yl)-2-methylpyrimidin-4-yl)amino)thiazole-5-carboxamide]",–,≥ 1,–,–,–
"6-(2-(2-((6-(4-(3-((3-cyano-4-((2,4-dichloro-5-methoxyphenyl)amino)-6-methoxyquinolin-7-yl)oxy)propyl)piperazin-1-yl)hexyl)oxy)ethoxy)ethoxy)-N-(2-(2,6-dioxopiperidin-3-yl)-1,3-dioxoisoindolin-4-yl)hexanamide [BOS-6-2-2-6-CRBN]",–,–,–,–,BCR-ABL degradation (BCR-ABL; at 2.5 μM): > 80%; c-ABL degradation (c-ABL; at 2.5 μM): > 90%
"Cc1nc(Nc2ncc(C(=O)Nc3c(C)cccc3Cl)s2)cc(N2CCN(CCCCCCOCCOCCOCCCCCC(=O)Nc3cccc4c3C(=O)N(C3CCC(=O)NC3=O)C4=O)CC2)n1 (centres unmarked) [DAS-6-2-2-6-CRBN, N-(2-chloro-6-methylphenyl)-2-((6-(4-(6-(2-(2-((6-((2-(2,6-dioxopiperidin-3-yl)-1,3-dioxoisoindolin-4-yl)amino)-6-oxohexyl)oxy)ethoxy)ethoxy)hexyl)piperazin-1-yl)-2-methylpyrimidin-4-yl)amino)thiazole-5-carboxamide]",0.6,–,> 85,–,BCR-ABL degradation (BCR-ABL; at 1 μM PROTAC): > 60%
"Cc1nc(Nc2ncc(C(=O)Nc3c(C)cccc3Cl)s2)cc(N2CCN(CCCCCCOCCOCCOCCOCCOCCOCC(=O)N[C@H](C(=O)N3C[C@H](O)C[C@H]3C(=O)NCc3ccc(-c4scnc4C)cc3)C(C)(C)C)CC2)n1 [DAS-6-(2-)5-2-VHL, N-(2-chloro-6-methylphenyl)-2-((6-(4-((S)-3-((2S,4R)-4-hydroxy-2-((4-(4-methylthiazol-5-yl)benzyl)carbamoyl)pyrrolidine-1-carbonyl)-2,2-dimethyl-5-oxo-7,10,13,16,19,22-hexaoxa-4-azaoctacosan-28-yl)piperazin-1-yl)-2-methylpyrimidin-4-yl)amino)thiazole-5-carboxamide]",–,≥ 1,–,–,–
"Cc1nc(Nc2ncc(C(=O)Nc3c(C)cccc3Cl)s2)cc(N2CCN(CCCCCCOCCCCCOCCCCCC(=O)N[C@H](C(=O)N3C[C@H](O)C[C@H]3C(=O)NCc3ccc(-c4scnc4C)cc3)C(C)(C)C)CC2)n1 [DAS-6-5-6-VHL, N-(2-chloro-6-methylphenyl)-2-((6-(4-(6-((5-((6-(((S)-1-((2S,4R)-4-hydroxy-2-((4-(4-methylthiazol-5-yl)benzyl)carbamoyl)pyrrolidin-1-yl)-3,3-dimethyl-1-oxobutan-2-yl)amino)-6-oxohexyl)oxy)pentyl)oxy)hexyl)piperazin-1-yl)-2-methylpyrimidin-4-yl)amino)thiazole-5-carboxamide]",2.6,≥ 1,–,1.3,–
